Data published in ChEMBL document CHEMBL1201862, “PubChem BioAssay data set” (2004).
Activity calls are given as the source filed them.

Tests used:
[1] = P. falciparum 3D7-ScDHODH growth inhibitors, dose response, SYBR Green, dry powder samples (AID 1159570); assay type: functional, cell-based;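 note: parasite growth measured after 72 hours of compound exposure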
[2] = HepG2 cell cytotoxicity, dose response, cytotoxicity control, plate reader, dry powder samples (AID 1159569); assay type: functional, cell-based;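 note: inhibitor potency with signal falling toward the positive control level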
[3] = P. falciparum Dd2 growth inhibitors, dose response, SYBR Green, cherry-picked samples (AID 1159567); assay type: functional, cell-based
[4] = P. falciparum Dd2 growth inhibitors, dose response, SYBR Green, dry powder samples (AID 1159566); assay type: functional, cell-based;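 note: potency for growth inhibition with lower SYBR green DNA signal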
[5] = HepG2 cell cytotoxicity, dose response, cytotoxicity control, cherry-picked samples (AID 1159577); assay type: functional, cell-based
[6] = P. falciparum ATP4 D1247Y mutant growth inhibitors, dose response, NITD609-resistant line, SYBR Green, dry powder (AID 1159571); assay type: functional, cell-based;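 note: parasites synchronized at ring stage by sorbitol before testing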
[7] = cytotoxicity in HPDE-C7 cells, cell-based, fluorescence, HTS (AID 430); assay type: functional; conditions: Homo sapiens
[8] = cytotoxicity in KRAS-transformed pancreatic duct cells, primary screen, cell-based, fluorescence, HTS (AID 431); assay type: functional; conditions: Homo sapiens;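 note: cell line used: HPDE-C7K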
[9] = target: T1, Calpain-2 catalytic subunit (Sus scrofa, UniProt P43367); experiment: pig calpain II inhibitor potency, dose response, biochemical, fluorogenic peptide substrate (AID 1420); assay type: functional
T1 sequence (P43367 whole entry): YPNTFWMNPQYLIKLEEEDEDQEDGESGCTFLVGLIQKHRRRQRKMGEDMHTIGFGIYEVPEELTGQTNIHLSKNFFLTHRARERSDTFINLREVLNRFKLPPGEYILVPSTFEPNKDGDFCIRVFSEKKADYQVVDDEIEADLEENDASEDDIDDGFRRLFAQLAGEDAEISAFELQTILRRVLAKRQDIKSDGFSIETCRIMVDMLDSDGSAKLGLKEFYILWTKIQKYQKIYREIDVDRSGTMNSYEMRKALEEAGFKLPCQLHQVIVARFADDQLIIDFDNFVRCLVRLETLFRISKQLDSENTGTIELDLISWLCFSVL

[10] = target: T2, Corticotropin-releasing factor receptor 2/Corticotropin-releasing factor-binding protein (Homo sapiens, UniProt P24387+Q13324); experiment: Dose Response confirmation of uHTS hits for small molecule antagonists of the CRF-binding protein and CRF-R2 receptor complex.; assay type: functional; conditions: read-out: IC50_Mean
T2 sequence (Q13324 whole entry): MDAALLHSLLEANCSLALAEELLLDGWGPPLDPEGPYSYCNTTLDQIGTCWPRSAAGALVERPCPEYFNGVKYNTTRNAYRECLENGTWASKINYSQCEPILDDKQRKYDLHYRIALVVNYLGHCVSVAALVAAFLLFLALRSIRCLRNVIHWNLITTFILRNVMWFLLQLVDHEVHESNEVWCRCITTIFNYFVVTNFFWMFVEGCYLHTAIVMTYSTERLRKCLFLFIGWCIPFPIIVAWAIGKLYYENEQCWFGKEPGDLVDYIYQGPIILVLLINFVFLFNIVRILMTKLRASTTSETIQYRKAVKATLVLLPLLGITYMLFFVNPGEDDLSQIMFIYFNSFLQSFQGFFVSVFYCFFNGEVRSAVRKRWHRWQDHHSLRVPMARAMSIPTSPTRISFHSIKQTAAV
T2 sequence (P24387 whole entry): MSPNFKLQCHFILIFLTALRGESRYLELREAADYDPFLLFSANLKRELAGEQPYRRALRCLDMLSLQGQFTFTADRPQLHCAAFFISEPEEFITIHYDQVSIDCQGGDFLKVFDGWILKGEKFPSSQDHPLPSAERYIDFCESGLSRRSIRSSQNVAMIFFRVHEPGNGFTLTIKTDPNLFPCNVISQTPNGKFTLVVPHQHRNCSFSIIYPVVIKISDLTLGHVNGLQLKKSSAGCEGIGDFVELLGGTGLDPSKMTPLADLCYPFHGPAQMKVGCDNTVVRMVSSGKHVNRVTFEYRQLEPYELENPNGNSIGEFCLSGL

[11] = target: T2, Corticotropin-releasing factor receptor 2/Corticotropin-releasing factor-binding protein; experiment: activators of CRF receptor 2 with binding protein – uHTS hits, confirmation (AID 602473); assay type: functional; conditions: read-out: EC50_Mean
Large T antigen = Large T antigen (Simian virus 40, UniProt P03070); assay type: functional, Betapolyomavirus macacae;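 note: Confirmatory-stage PubChem screen for compounds that inhibit SV40 T antigen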
Large T antigen, sequence (P03070 whole entry): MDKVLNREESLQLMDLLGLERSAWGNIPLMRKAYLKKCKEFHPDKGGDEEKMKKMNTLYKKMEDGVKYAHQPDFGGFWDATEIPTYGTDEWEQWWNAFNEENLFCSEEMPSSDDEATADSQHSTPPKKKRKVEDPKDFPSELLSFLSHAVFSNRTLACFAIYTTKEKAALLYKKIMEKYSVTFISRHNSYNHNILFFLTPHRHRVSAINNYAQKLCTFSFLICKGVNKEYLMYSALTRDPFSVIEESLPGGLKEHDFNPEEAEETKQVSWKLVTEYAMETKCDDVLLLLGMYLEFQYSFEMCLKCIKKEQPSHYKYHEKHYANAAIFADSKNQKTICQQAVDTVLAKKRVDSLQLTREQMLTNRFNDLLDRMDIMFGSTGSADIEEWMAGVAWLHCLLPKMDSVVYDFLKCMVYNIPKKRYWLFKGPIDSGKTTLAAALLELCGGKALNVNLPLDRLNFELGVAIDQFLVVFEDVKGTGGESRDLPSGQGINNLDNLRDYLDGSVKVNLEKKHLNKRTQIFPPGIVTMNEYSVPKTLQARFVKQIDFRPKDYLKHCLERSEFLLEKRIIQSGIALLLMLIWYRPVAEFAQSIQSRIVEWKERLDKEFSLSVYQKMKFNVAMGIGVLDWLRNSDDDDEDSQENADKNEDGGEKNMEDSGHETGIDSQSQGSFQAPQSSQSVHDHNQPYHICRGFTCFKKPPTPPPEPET

Protein Tat = target: T3, Protein Tat (Human immunodeficiency virus type 1 group M subtype B (isolate HXB2)(HIV-1), UniProt P04608); assay type: functional;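 note: tat binding to TAR RNA read out by fluorescence polarization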
T3 sequence (P04608 whole entry): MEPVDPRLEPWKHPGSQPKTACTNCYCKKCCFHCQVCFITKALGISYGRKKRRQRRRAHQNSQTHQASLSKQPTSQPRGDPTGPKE

[12] = THP-1 cell cytotoxicity, dose response, cytotoxicity control for Vif-APOBEC3G degradation inhibitor project, THP-1 cells (AID 1117359); assay type: functional; conditions: Human immunodeficiency virus 1, THP-1
[13] = target: Voltage-gated inwardly rectifying potassium channel KCNH2 (Homo sapiens, UniProt Q12809); experiment: hERG protection from proarrhythmic block, potency, dose response, cell-based, thallium flux (AID 2121); assay type: ADME
Voltage-gated inwardly rectifying potassium channel KCNH2, sequence (Q12809 whole entry): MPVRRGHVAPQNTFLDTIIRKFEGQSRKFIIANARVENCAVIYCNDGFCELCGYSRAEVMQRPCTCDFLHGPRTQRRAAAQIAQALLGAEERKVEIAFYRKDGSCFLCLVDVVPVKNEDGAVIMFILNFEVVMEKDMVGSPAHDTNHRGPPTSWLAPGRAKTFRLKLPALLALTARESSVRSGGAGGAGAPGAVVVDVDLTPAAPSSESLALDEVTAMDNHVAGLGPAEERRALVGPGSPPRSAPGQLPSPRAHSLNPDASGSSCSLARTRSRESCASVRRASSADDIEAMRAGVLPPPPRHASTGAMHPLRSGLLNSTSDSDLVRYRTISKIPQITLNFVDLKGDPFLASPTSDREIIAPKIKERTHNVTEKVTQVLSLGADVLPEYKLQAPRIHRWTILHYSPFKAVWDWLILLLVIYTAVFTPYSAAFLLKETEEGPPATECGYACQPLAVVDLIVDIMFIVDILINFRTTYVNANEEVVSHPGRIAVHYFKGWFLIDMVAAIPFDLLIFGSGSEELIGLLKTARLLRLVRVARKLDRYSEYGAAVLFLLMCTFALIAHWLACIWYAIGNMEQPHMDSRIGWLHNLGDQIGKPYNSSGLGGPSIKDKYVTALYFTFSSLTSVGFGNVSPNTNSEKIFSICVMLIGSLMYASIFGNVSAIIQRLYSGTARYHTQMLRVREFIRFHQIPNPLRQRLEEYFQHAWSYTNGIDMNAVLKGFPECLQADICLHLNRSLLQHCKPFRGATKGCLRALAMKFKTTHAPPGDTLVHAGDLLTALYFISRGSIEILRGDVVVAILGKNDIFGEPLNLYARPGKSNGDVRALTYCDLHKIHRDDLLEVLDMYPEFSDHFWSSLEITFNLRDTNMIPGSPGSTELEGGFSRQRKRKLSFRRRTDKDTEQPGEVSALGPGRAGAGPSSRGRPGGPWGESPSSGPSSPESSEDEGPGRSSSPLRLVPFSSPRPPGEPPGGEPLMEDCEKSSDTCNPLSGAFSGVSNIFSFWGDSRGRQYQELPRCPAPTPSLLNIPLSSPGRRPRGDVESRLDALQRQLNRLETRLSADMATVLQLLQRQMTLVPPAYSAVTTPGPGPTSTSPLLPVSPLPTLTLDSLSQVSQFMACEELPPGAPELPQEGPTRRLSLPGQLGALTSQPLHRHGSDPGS

[14] = inhibitors of PGC1a acetylation in cells, dose response, cell-based, cherry-picked samples (AID 720514); assay type: functional;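 note: potency may reflect raised or lowered acetylation signal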
Genome polyprotein = Genome polyprotein (dengue virus type 2, UniProt P29990); experiment: Dengue-2 NS5 methyltransferase inhibitors, primary screen, biochemical, confirmation dose response (AID 588689); assay type: functional
Genome polyprotein, sequence (P29990 2492-3391 limits assumed): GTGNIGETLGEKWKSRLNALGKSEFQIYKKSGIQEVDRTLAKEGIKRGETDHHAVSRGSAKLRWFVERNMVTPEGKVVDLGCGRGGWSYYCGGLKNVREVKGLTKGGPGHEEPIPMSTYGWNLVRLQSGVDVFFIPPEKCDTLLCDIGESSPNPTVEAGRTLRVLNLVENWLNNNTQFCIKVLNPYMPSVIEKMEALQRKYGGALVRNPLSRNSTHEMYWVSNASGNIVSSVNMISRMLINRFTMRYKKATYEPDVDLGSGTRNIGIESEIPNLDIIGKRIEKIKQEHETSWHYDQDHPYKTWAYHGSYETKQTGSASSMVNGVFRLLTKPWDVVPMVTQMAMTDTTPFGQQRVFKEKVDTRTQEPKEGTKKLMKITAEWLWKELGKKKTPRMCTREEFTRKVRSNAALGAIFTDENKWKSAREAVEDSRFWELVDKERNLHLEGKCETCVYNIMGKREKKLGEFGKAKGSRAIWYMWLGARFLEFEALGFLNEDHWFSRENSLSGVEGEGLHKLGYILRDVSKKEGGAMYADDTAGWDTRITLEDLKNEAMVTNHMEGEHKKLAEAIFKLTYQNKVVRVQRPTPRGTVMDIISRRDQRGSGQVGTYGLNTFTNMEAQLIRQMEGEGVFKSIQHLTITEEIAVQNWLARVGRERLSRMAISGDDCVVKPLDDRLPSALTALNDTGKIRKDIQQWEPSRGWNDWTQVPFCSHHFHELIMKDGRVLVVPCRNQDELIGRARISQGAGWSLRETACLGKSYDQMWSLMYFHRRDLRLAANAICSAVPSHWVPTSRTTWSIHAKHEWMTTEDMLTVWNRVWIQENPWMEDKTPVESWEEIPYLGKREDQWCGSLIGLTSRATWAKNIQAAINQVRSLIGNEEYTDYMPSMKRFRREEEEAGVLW

[15] = target: T4, 1-phosphatidylinositol 4,5-bisphosphate phosphodiesterase gamma-1 (Homo sapiens, UniProt P19174); experiment: Counterscreen for inhibitors of phospholipase C isozymes (PLC-B3): Fluorescence-based biochemical high throughput dose response assay to identify inhibitors of phospholipase C isozymes (PLC-gamma1).
T4 sequence (P19174 whole entry): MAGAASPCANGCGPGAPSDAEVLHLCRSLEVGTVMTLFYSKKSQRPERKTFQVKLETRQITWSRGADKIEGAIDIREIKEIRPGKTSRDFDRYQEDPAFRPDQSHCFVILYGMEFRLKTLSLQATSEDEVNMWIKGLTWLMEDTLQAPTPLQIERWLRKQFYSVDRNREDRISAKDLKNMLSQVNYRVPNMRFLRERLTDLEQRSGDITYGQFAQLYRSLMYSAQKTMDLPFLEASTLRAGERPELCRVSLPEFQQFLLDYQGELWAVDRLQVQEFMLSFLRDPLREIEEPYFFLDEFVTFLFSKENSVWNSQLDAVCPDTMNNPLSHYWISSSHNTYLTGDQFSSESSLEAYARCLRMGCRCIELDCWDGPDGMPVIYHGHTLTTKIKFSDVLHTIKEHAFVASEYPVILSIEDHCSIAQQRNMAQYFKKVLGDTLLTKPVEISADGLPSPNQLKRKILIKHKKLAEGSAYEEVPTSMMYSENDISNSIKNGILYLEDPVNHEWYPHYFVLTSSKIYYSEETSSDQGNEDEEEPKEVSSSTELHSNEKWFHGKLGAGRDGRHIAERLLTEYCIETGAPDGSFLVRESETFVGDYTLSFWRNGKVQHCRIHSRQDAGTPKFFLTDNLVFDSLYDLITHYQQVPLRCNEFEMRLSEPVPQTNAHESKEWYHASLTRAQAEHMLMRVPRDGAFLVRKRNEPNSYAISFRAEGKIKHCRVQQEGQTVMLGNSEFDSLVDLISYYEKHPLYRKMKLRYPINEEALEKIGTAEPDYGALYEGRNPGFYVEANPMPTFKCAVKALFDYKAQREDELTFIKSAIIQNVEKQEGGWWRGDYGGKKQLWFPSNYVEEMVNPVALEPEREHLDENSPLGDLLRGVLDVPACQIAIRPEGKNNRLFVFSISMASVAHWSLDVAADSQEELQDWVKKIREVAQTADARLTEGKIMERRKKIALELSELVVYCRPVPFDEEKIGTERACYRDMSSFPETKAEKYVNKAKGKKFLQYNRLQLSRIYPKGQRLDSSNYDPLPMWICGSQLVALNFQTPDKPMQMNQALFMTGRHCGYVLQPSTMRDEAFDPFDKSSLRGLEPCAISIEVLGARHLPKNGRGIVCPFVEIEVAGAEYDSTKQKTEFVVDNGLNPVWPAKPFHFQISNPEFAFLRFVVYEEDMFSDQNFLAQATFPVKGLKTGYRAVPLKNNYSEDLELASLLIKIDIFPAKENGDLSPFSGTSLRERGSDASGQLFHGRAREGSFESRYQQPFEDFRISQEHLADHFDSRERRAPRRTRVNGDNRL

[16] = target: T5, 1-phosphatidylinositol 4,5-bisphosphate phosphodiesterase beta-3 (Homo sapiens, UniProt Q01970); experiment: Fluorescence-based biochemical high throughput dose response assay to identify inhibitors of phospholipase C isozymes (PLC-B3).
T5 sequence (Q01970 whole entry): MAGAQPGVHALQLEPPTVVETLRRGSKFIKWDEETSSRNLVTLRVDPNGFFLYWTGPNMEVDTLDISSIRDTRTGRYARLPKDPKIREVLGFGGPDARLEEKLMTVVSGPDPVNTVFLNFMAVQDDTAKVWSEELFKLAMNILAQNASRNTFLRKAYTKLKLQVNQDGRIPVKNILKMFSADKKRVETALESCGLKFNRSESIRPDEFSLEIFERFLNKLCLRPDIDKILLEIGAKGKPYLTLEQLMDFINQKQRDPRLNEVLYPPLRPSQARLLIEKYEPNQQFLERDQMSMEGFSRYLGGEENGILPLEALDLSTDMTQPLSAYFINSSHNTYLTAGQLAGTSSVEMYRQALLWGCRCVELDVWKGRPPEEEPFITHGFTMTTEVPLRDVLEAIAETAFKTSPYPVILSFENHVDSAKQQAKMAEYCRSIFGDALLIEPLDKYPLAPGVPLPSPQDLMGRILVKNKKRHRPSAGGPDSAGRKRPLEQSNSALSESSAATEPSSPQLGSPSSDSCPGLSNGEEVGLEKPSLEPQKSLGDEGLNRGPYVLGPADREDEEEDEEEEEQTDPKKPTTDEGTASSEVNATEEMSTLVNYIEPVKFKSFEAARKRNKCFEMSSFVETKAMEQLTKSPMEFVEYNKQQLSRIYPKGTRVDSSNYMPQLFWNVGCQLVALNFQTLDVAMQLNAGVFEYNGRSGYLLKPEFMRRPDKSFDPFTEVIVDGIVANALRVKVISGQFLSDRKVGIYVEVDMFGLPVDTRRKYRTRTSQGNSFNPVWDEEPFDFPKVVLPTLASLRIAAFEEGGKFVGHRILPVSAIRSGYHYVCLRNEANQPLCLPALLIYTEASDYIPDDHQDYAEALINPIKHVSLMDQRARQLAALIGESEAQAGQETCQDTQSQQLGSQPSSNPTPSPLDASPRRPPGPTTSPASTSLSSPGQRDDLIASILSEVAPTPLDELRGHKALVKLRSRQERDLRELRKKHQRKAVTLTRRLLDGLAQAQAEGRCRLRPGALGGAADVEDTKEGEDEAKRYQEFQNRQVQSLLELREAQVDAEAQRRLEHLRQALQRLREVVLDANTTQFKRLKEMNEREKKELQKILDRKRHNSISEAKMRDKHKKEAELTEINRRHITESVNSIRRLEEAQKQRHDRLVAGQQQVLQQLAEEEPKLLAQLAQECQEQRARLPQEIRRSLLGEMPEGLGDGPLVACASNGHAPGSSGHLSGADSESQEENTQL

[17] = LGR2 antagonists, dose response, cell-based, HEK293, CRE-luciferase reporter, cherry pick, set 2 (AID 743343); assay type: functional;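 note: transfected cells were stimulated with diluted bursicon conditioned medium after compound addition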
[18] = MC4R antagonists, dose response, counter-screen for LGR2 antagonist project, cell-based, plate reader, cherry pick (AID 743444); assay type: functional;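 note: transfected HEK 293 cells stimulated with alpha-MSH peptide; potency of inhibitors of the alpha-MSH evoked signal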
[19] = HEK293 cell cytotoxicity, dose response, cytotoxicity control, plate reader, cherry-picked samples (AID 743446); assay type: functional, cell-based

CO[C@@H]1CN(C)C(=O)c2ccc(NC(=O)c3nc4ccccc4s3)cc2OC[C@@H](C)N(Cc2ccncc2)C[C@H]1C
AC50 [1]: 1.39 µM (active) | AC50 [2]: 26.7 µM (active) | AC50 [3]: 2.62 µM (active) | AC50 [4]: 1.33 µM (active) | AC50 [5]: > 39 µM (inactive) | AC50 [6]: 1.34 µM (active)

Brc1ccc(CSc2nnc(Cc3c[nH]c4ccccc34)o2)cc1
EC50 [7]: 14.2 µM (active) | EC50 [8]: 13.4 µM (active) | IC50 [9]: 5.75 µM (not active) | IC50 [10]: > 47.1 µM (inactive) | EC50 [11]: > 53 µM (inactive)

COc1ccc2c3c(n(C)c2c1)[C@H](CO)N(C(=O)Nc1ccc(F)cc1)CC31CN(C(=O)c2ccc3c(c2)OCO3)C1
AC50 [1]: 1.89 µM (active) | AC50 [2]: > 100 µM (inactive) | AC50 [3]: 2.68 µM (active) | AC50 [4]: 0.683 µM (active) | AC50 [6]: 1.2 µM (active)

CCOC(=O)N1CCN(c2ccc(O)cc2)CC1
IC50 (Large T antigen): 10.2 µM (active) | IC50 (Protein Tat): 14 µM (inconclusive) | CC50 [12]: > 40 µM (active)

CC(=O)c1c(N)nc(-c2ccccc2)nc1S
EC50 [13]: 11 µM (active)

COc1cc(CN2C[C@@H]3N[C@H](C2)[C@@H]3c2ccc(/C=C/c3ccccc3)cc2)cc(OC)c1
AC50 [14]: 13 µM (active) | AC50 [3]: 2.38 µM (active) | AC50 [5]: 6.51 µM (active)

OC(COCc1ccc(Cl)cc1)CN1CCN(CC(O)COCc2ccc(Cl)cc2)CC1 (stereo not drawn)
EC50 [7]: > 20 µM (not active) | EC50 [8]: > 20 µM (not active)

CCOc1cc(Br)cc(C(c2c(C(=O)O)[nH]c3ccccc23)c2c(C(=O)O)[nH]c3ccccc23)c1O
IC50 (Genome polyprotein): 18.7 µM (active) | IC50 [15]: 18.6 µM (inactive) | IC50 [16]: > 122 µM (inactive)

COC(=O)C[C@@H]1CC[C@@H]2[C@H](COc3ccc(NC(=O)c4cccc(F)c4)cc3C(=O)N2C)O1
IC50 [15]: > 122 µM (inactive) | IC50 [16]: > 122 µM (inactive)

COc1ccc(NC(=O)c2cc(-c3ccc(OC)c(OC)c3)on2)cc1OC
IC50 [15]: > 123 µM (inactive) | IC50 [16]: > 123 µM (inactive)

C=CCc1cccc(CNc2nc3ccccc3n2CC)c1O
EC50 [7]: > 20 µM (not active) | EC50 [8]: > 20 µM (not active)

Cc1cc(C(=O)COC(=O)c2cccn2C)c(C)n1Cc1ccco1
AC50 [17]: 5.16 µM (active) | AC50 [18]: 9.65 µM (active) | AC50 [19]: > 52 µM (inactive)

COc1cccc(C(C#N)N2CCCCC2)c1O (stereo not drawn)
IC50 (Protein Tat): > 100 µM (active)
